Experimental data taken from US20010001713A1, “Composition and method for measuring the foliar uptake of agrochemicals” (priority 1999, published 2001).
Like-named read-outs stand apart in the source and are kept apart here.

Assays:
[1] = tested on: rice plants; conditions: in vivo
[2] = tested on: cucumber leaves; assay: Selection of a penetrant for the absorption of dimethomorph by cucumber leaves; conditions: 24 hours after spraying, dimethomorph 250 ppm (Forum wettable powder) + penetrant 1,000 ppm
Procedure: (§1) Forum wettable powder(a 25% dimethomorph formulation, Dongbang Agro Co., Ltd., Korea) was dispersed in water and added thereto were one of the penetrant candidate materials listed in Table 4 and Congo Red to obtain an agrochemical solution containing dimethomorph, a penetrant candidate and Congo Red at concentrations of 250 ppm, 1,000 ppm and 200 ppm, respectively. A control containing no penetrant was also prepared.
The agrochemical solution and control thus prepared were sprayed on leaves of each of six cucumber plants having 4 to 5 leaves, as well as on six glass plates(10 cm×10 cm). Immediately after the spraying, the sprayed cucumber leaves from 3 cucumber plants and three glass plates were washed with 12 ml portion of 30% acetonitrile-aqueous solution for 3 minutes to obtain standard wash extracts and controls.
The remaining three cucumber pots and three glass plates were stored in the dark at room temperature, and the same procedure was repeated at 24 hours after the spraying.
The concentrations of dimethomorph and Congo Red in the wash extracts were measured by HPLC(Spectra 200 Programmable Wavelength Detector, acetonitrile-water solvent programming, 42%-80%) . The wash extracts obtained immediately after the spraying were used as standard solutions, and Congo Red, as an internal standard. The foliar uptake rate of dimethomorph was calculated by comparing the concentrations of dimethomorph and Congo Red in the wash extracts obtained immediately after the spraying and at 24 hours after the spraying.

[3] = tested on: cucumber leaves; assay: Foliar uptake of agrochemicals by cucumber plants (Congo Red tracer method); conditions: for Time-dependent Uptake by Cucumber(%) (Mean ± S.D.(n = 3)) after 24 hrs: 24 hrs after spraying
Procedure: (§2) (Step 1) Preparation of a solution containing agrochemicals and Congo Red
(§3) Since dimethomorph is not readily absorbed by the plant, 0.1% of stearylamine ethoxylate(SN, moles of ethylene oxide added: 10) was added as an adjuvant to enhance its foliar uptake.
(§4) Cucumber seeds(Baktadagi, Hung Nong Seed Co., Ltd., Korea) were sowed in disposable resin cup pots (id 47 mm×50 mm) at a density of three seeds per pot and cultivated in a greenhouse. Upon the complete development of cotyledons, the cucumber plants were each transplanted to a disposable resin cup pot(id 66 mm×h 66 mm) and cultivated in a greenhouse until the development of 4 to 5 leaves.
(§5) 18 pots of cucumber plants thus prepared were put in a spray booth and sprayed with the agrochemical solution prepared in (Step 1) in an amount of 80 l/ha. Further, 15 glass plates(10 cm×10 cm) were also sprayed with the same agrochemical solution prepared in (Step 1) in an amount of 80 l /ha.
(§6) Immediately after the spraying in (Step 2) , one leaf with its petiole attached was cut off from each of three cucumber plants, put in a test tube containing the appropriate washing solution and washed by agitating the tube with bottom-side up at 60 to 70 rpm for 2 minutes to obtain three wash extracts. Three glass plates were subjected to the same washing procedure in a petri dish(id 15.2 cm) to obtain three control wash extracts.
(§7) The remaining 15 cucumber plants and 12 glass plates were stored in the dark at room temperature, and the same washing procedure as above was repeated at 1 hour, 3 hours, 6 hours, 12 hours and 24 hours after the spraying.
(§8) The concentrations of the agrochemicals in the wash extracts were measured by HPLC(Spectra 200 Programmable Wavelength Detector, acetonitrile-water solvent programming, 42%-80%). The wash extracts obtained immediately after the spraying were used as standard solutions, and Congo Red, as an internal standard.

[4] = tested on: cucumber leaves; conditions: Baktadagi, in vivo, 0 h
Procedure: as §2, §3, §4, §5, §6, §7, §8

[5] = Glass plate control run of Example 3 (loss of dimethomorph other than by plant uptake); conditions: 24 hours after spraying, stored in the dark at room temperature
Source text: The use of a control plate serves the purpose of determining the loss of agrochemical due to reasons other than plant uptake.
as §1
The agrochemical solution and control thus prepared were sprayed on leaves of each of six cucumber plants having 4 to 5 leaves, as well as on six glass plates(10 cm×10 cm). Immediately after the spraying, the sprayed cucumber leaves from 3 cucumber plants and three glass plates were washed with 12 ml portion of 30% acetonitrile-aqueous solution for 3 minutes to obtain standard wash extracts and controls. […]
The concentrations of dimethomorph and Congo Red in the wash extracts were measured by HPLC(Spectra 200 Programmable Wavelength Detector, acetonitrile-water solvent programming, 42%-80%) . […] The foliar uptake rate of dimethomorph was calculated by comparing the concentrations of dimethomorph and Congo Red in the wash extracts obtained immediately after the spraying and at 24 hours after the spraying.

[6] = tested on: rice plants; conditions: in vivo; for Time-dependent Uptake by Rice(%) (Mean ± S.D.(n = 3)) I.A. / Time-dependent Uptake by Rice(%) (Mean ± S.D.(n = 3)) after 1 hr / Time-dependent Uptake by Rice(%) (Mean ± S.D.(n = 3)) after 3 hrs / Time-dependent Uptake by Rice(%) (Mean ± S.D.(n = 3)) after 6 hrs / Time-dependent Uptake by Rice(%) (Mean ± S.D.(n = 3)) after 12 hrs / Time-dependent Uptake by Rice(%) (Mean ± S.D.(n = 3)) after 24 hrs: Dongjin byeo

laurylamine ethoxylate [laurylamine ethoxylate(7)]
Recovery (%) of tricyclazole [1]: 35.4% | Uptake (%) of tricyclazole [1]: 64.6% | Recovery (%) of dimethomorph [2]: 96.3% | Uptake (%) of dimethomorph [2]: 3.7%

stearylamine ethoxylate [stearylamine ethoxylate(10)]
Recovery (%) of tricyclazole [1]: 46.1% | Uptake (%) of tricyclazole [1]: 53.9% | Recovery (%) of dimethomorph [2]: 85.5% | Uptake (%) of dimethomorph [2]: 14.5%

OC(c1ccc(Cl)cc1)(c1cncnc1)c1ccccc1Cl (stereo not shown) [Fenarimol, fenarimol]
Time-dependent Uptake by Cucumber(%) (Mean ± S.D.(n = 3)) after 1 hr ([3]; 1 hr after spraying, stored in the dark, dimethomorph with 0.1% stearylamine ethoxylate): 2.0 ± 8.1% | Time-dependent Uptake by Cucumber(%) (Mean ± S.D.(n = 3)) after 3 hrs ([3]; 3 hrs after spraying, stored in the dark, dimethomorph with 0.1% stearylamine ethoxylate): 3.2 ± 1.8% | Time-dependent Uptake by Cucumber(%) (Mean ± S.D.(n = 3)) after 6 hrs ([3]; 6 hrs after spraying, stored in the dark, dimethomorph with 0.1% stearylamine ethoxylate): 5.2 ± 2.5% | Time-dependent Uptake by Cucumber(%) (Mean ± S.D.(n = 3)) after 12 hrs ([3]; 12 hrs after spraying, stored in the dark, dimethomorph with 0.1% stearylamine ethoxylate): 8.0 ± 4.1% | Time-dependent Uptake by Cucumber(%) (Mean ± S.D.(n = 3)) after 24 hrs ([3]; stored in the dark, dimethomorph with 0.1% stearylamine ethoxylate): 15.1 ± 4.0% | Time-dependent Uptake by Cucumber(%) (Mean ± S.D.(n = 3)) after 24 hrs ([3]; stored in the dark, dimethomorph with 0.1% stearylamine ethoxylate, listed as fenarimol): 15.1% | Time-dependent Uptake by Cucumber(%) (Mean ± S.D.(n = 3)) I.A. ([3]; immediately after the spraying, 80 l/ha, dimethomorph solution with 0.1% stearylamine ethoxylate): 0 ± 3.1%

CCCCC(CC)COC(=O)CC(C(=O)OCC(CC)CCCC)S(=O)(=O)[O-].[Na+] (stereo not shown) [sodium dioctylsulfosuccinate]
Recovery (%) of tricyclazole [1]: 79.1% | Uptake (%) of tricyclazole [1]: 20.9% | Recovery (%) of dimethomorph [2]: 94.5% | Uptake (%) of dimethomorph [2]: 5.5%

tridecyl alcohol ethoxylate [tridecyl alcohol ethoxylate(5)]
Recovery (%) of tricyclazole [1]: 75.6% | Uptake (%) of tricyclazole [1]: 24.4% | Recovery (%) of dimethomorph [2]: 98.0% | Uptake (%) of dimethomorph [2]: 2.0%

COc1ccc(C(=CC(=O)N2CCOCC2)c2ccc(Cl)cc2)cc1OC [Dimethomorph, dimethomorph]
Time-dependent Uptake by Cucumber(%) (Mean ± S.D.(n = 3)) I.A. [4]: 0 ± 0.7% | Uptake (%) of dimethomorph [5]: 0.0%

nonylphenol ethoxylate [nonylphenol ethoxylate(10)]
Recovery (%) of tricyclazole [1]: 80.6% | Uptake (%) of tricyclazole [1]: 19.4% | Recovery (%) of dimethomorph [2]: 99.8% | Uptake (%) of dimethomorph [2]: 0.2%

CC(C)OC(=O)C(C(=O)OC(C)C)=C1SCCS1 [Isoprothiolane, isoprothiolane]
Time-dependent Uptake by Rice(%) (Mean ± S.D.(n = 3)) I.A. [6]: 0 ± 1.0% | Time-dependent Uptake by Rice(%) (Mean ± S.D.(n = 3)) after 1 hr [6]: 7.9 ± 1.9% | Time-dependent Uptake by Rice(%) (Mean ± S.D.(n = 3)) after 3 hrs [6]: 11.6 ± 1.2% | Time-dependent Uptake by Rice(%) (Mean ± S.D.(n = 3)) after 6 hrs [6]: 16.1 ± 1.3% | Time-dependent Uptake by Rice(%) (Mean ± S.D.(n = 3)) after 12 hrs [6]: 27.8 ± 1.1% | Time-dependent Uptake by Rice(%) (Mean ± S.D.(n = 3)) after 24 hrs [6]: 47.1 ± 2.5% | absorption by the rice plants (in words) [6]: absorbed by the rice plants at a steady rate

castor oil ethoxylate [castor oil ethoxylate(17)]
Recovery (%) of tricyclazole [1]: 63.7% | Uptake (%) of tricyclazole [1]: 36.3%

Cc1cccc2sc3nncn3c12 [Tricyclazole, tricyclazole]
Recovery (%) of tricyclazole ([1]; rice): 82.4% | Uptake (%) of tricyclazole ([1]; rice): 17.6% | Time-dependent Uptake by Rice(%) (Mean ± S.D.(n = 3)) I.A. [6]: 0 ± 1.1% | Time-dependent Uptake by Rice(%) (Mean ± S.D.(n = 3)) after 1 hr [6]: 1.4 ± 0.7% | Time-dependent Uptake by Rice(%) (Mean ± S.D.(n = 3)) after 3 hrs [6]: 1.1 ± 1.5% | Time-dependent Uptake by Rice(%) (Mean ± S.D.(n = 3)) after 6 hrs [6]: 2.0 ± 1.4% | Time-dependent Uptake by Rice(%) (Mean ± S.D.(n = 3)) after 12 hrs [6]: 4.1 ± 0.5% | Time-dependent Uptake by Rice(%) (Mean ± S.D.(n = 3)) after 24 hrs [6]: 11.0 ± 0.9% | absorption by the rice plants (in words) [6]: absorbed by the rice plants at a steady rate

CC12CC1(C)C(=O)N(c1cc(Cl)cc(Cl)c1)C2=O (stereo not shown) [Procymidone, procymidone]
Time-dependent Uptake by Cucumber(%) (Mean ± S.D.(n = 3)) I.A. [4]: 0 ± 0.8%

CCOP(=O)(Sc1ccccc1)Sc1ccccc1 [Edifenphos, edifenphos]
Time-dependent Uptake by Rice(%) (Mean ± S.D.(n = 3)) I.A. [6]: 0 ± 1.3% | Time-dependent Uptake by Rice(%) (Mean ± S.D.(n = 3)) after 1 hr [6]: 1.5 ± 1.1% | Time-dependent Uptake by Rice(%) (Mean ± S.D.(n = 3)) after 3 hrs [6]: 4.9 ± 0.7% | Time-dependent Uptake by Rice(%) (Mean ± S.D.(n = 3)) after 6 hrs [6]: 7.8 ± 0.4% | Time-dependent Uptake by Rice(%) (Mean ± S.D.(n = 3)) after 12 hrs [6]: 14.5 ± 1.3% | Time-dependent Uptake by Rice(%) (Mean ± S.D.(n = 3)) after 24 hrs [6]: 29.8 ± 1.9% | absorption by the rice plants (in words) [6]: absorbed by the rice plants at a steady rate
